Reference: paper PMC10724293, “New ruthenium-xanthoxylin complex eliminates colorectal cancer stem cells by targeting the heat shock protein 90 chaperone” (Cell Death & Disease, 2023)

How the values were obtained:
HCT116 cells [1] = test: Wound healing assay; assay type: cell-based, human; details: 72 h, noncytotoxic concentrations
Method: Wound healing assays were carried out as previously described, with some modifications. Cells were grown to 80–90% confluency in 12-well plates, and a wound was created by dragging a plastic pipette tip across the cell surface. The remaining cells were washed three times in saline to remove cell debris before being incubated in serum-free medium and treated with the drug. Using an optical microscope, migrating cells in front of the wound were photographed after 0 and 72 h of incubation (Nikon, TS 100). ImageJ software was used to calculate the wound area (NIH, USA).

HCT116 cells [2] = test: CD133 expression by flow cytometry; assay type: cell-based, human; details: 10 μM, 24 h; control 32.0%
Method: (§1) For cell surface protein staining, cells were washed with incubation buffer (0.5% bovine serum albumin in PBS), and then antibodies were added and incubated for 1 h at room temperature. The cells were then washed with PBS, and cell fluorescence was measured using flow cytometry. To select viable cells for quantification of CD133-positive cells, YO-PRO-1 (Sigma-Aldrich Co.) was used.

[3] = test system: CR02 (colorectal carcinoma); test: Alamar blue viability of primary cancer cells; assay type: cell-based, human; details: primary CRC (second listed); 25 μg/ml (RXC 31.3 μM, DOX 46 μM); 96 h
Method: The Alamar blue assay was used to determine cell viability as previously described. Cells were seeded into 96-well plates at a density of 7 × 10^3 cells per well for adherent cells or 3 × 10^4 cells per well for suspended cells. The drug was added to each well after 24 h of incubation for adherent cells or immediately for suspended cells and incubated for an additional 72 h. […] Each well received 100 µM resazurin (Sigma-Aldrich Co. St. Louis, MO, United States) four (for cell lines) or 24 (for primary culture) h before the end of the incubation. A SpectraMax 190 Microplate Reader (Molecular Devices, Sunnyvale, CA, USA) was used to measure absorbance at 570 and 600 nm. […]

HCT116 cells [4] = test: Protein expression levels by flow cytometry; assay type: cell-based, human; details: 10 μM, 24 h
Method: Flow cytometry was used to measure protein expression levels using primary antibodies conjugated with specific fluorochromes, as detailed in Table S5. For intracellular protein staining, cells were collected and resuspended in 0.5–1 ml of 4% formaldehyde for 10 min at 37 °C. The tubes were then kept on ice for 1 min and permeabilized for 30 min on ice by slowly adding ice-cold 100% methanol to prechilled cells while gently vortexing to a final concentration of 90% methanol. After washing with incubation buffer (0.5% bovine serum albumin in PBS), antibodies were added and incubated at room temperature for 1 h. Finally, the cells were washed with PBS, and the fluorescence of the cells was measured using flow cytometry.
as §1
(§2) For all flow cytometry analyses, cell fluorescence was measured with a BD LSRFortessa cytometer and analyzed by BD FACSDiva Software (BD Biosciences) and FlowJo Software 10 (FlowJo LLC; Ashland, OR, USA). At least 10,000 events were evaluated per sample for intracellular staining, and at least 30,000 events were acquired per sample for cell surface protein staining. FSC-A versus FCS-H and SCC-A versus SCC-H were used to remove the doublets. The analysis excluded cellular debris.

HCT116 cells [5] = test: Colonosphere assay; assay type: cell-based, human
Method: HCT116 cells, at densities of 1.25 × 10^5 cells/ml, were cultured in 24-well low adhesion plates (Corning, USA) in serum-free DMEM-F12 supplemented with 20 ng/ml bFGF (PeproTech, USA), 20 ng/ml EGF (PeproTech, USA), and B27 supplement (Invitrogen, Carlsbad, CA, USA). On the following day, the cells were subjected to drug concentrations of 20, 10, 5, 2.5, and 1.25 μM. The cells were photographed using an optical microscope after 0, 24, 48, and 72 h of incubation (Leica, DMI8). Furthermore, 10 µM RXC-treated cells were stained with acridine orange/PI and analyzed by confocal microscopy or stained with anti-CD133 antibody plus YO-PRO-1 and analyzed by flow cytometry.

HepG2 cells = details: C. B-17 SCID mice engrafted with HepG2 cells; cited from earlier work
HCT116 cells [6] = test: Cell cycle distribution and internucleosomal DNA fragmentation by flow cytometry; assay type: cell-based, human
Method: For quantification of internucleosomal DNA fragmentation and cell cycle distribution, the cells were stained with PI using a solution containing 0.1% Triton X-100, 2 µg/ml PI, 0.1% sodium citrate, and 100 µg/ml RNAse (all from Sigma-Aldrich) and incubated in the dark for 15 min at room temperature. Finally, cell fluorescence was measured using flow cytometry.
as §2

HCT116 cells [7] = test: Trypan blue exclusion assay; assay type: cell-based, human; details: 2.5, 5 and 10 μM; 24, 48 and 72 h
Method: The trypan blue exclusion assay was used to quantify the number of viable cells. Briefly, 90 μl of the cell suspension plus 10 μl of trypan blue (0.4%) were mixed, and an aliquot was analyzed in a hemocytometer. The number of viable (unstained cells) and nonviable (trypan blue-stained cells) cells was counted using a light microscope.

HCT116 cells [8] = test: Mitochondrial transmembrane potential, rhodamine 123 flow cytometry; assay type: cell-based, human; details: 24 h, all concentrations tested
Method: To ensure mitochondrial transmembrane potential, the cells were stained with rhodamine 123 (5 µg/ml, Sigma-Aldrich Co.) at 37 °C for 15 min in the dark. The cells were then washed with saline and incubated in saline for 30 min in the dark at 37 °C, and cell fluorescence was determined using flow cytometry.

cis-[Ru(phen)2(xant)](PF6) [RXC]
cell migration (HCT116 cells [1]): inhibited cell migration
HCT116 CD133-positive cells (HCT116 cells [2]): 10.1%
lung histology (2 mg/kg, one animal): hemorrhage with hemosiderin deposits
hematological analysis (RXC 2 mg/kg, DOX 0.8 mg/kg, i.p. once a day for 2 weeks): reduction in erythrocytes
animals died during the treatment (RXC 2 mg/kg, DOX 0.8 mg/kg, i.p. once a day for 2 weeks, n = 15 per group): four
body weight (RXC 2 mg/kg, DOX 0.8 mg/kg, i.p. once a day for 2 weeks, p < 0.05): decrease in body weight
liver histology (RXC 2 mg/kg, DOX 0.8 mg/kg, mainly in treated animals): focal areas of hepatocyte coagulation necrosis
kidney histology (RXC 2 mg/kg, DOX 0.8 mg/kg, more evident than in control): focal areas of coagulation necrosis of the renal cortex tubules
reduced cell viability [3]: 37.4%
E-cadherin expression (HCT116 cells [4]): increased
LC3B expression (HCT116 cells [4]): increased
expression level of 4EBP1 (pT36/pT45) (HCT116 cells [4]): decreased
expression level of Akt1 (HCT116 cells [4]): decreased
expression level of Akt (pS473) (HCT116 cells [4]): decreased
expression level of Akt (pT308) (HCT116 cells [4]): no change
expression level of GSK-3β (pS9) (HCT116 cells [4]): decreased
expression level of NF-κB p65 (pS529) (HCT116 cells [4]): decreased
expression level of PI3K p85/p55 (pT458/pT199) (HCT116 cells [4]): no change
expression level of S6 (pS235/pS236) (HCT116 cells [4]): no change
expression level of elF4E (pS209) (HCT116 cells [4]): no change
expression level of mTOR (pS2448) (HCT116 cells [4]): decreased
expression of Hsp90 protein (HCT116 cells [4]): decreased
levels of PARP cleavage (Asp214) (HCT116 cells [4]): increased
p62/SQSTM1 expression (HCT116 cells [4]): decreasing
vimentin expression (HCT116 cells [4]): decreased
HCT116 CD133-positive cells in colonospheres (HCT116 cells [5]; 10 μM, 24 h, control 47.8%): 19.5%
colonosphere formation (HCT116 cells [5]; 1.25-20 μM, 24, 48, 72 h): reduced colonosphere formation
tumor growth (HepG2 cells): suppressed tumor growth
DNA fragmentation (sub-G0/G1) (HCT116 cells [6]; 2.5 μM, 48 h, control […]): 7.1%
DNA fragmentation (sub-G0/G1) (HCT116 cells [6]; 2.5 μM, 72 h, control 2.0%): 18.8%
DNA fragmentation (sub-G0/G1) (HCT116 cells [6]; 5 μM, 48 h, control […]): 9.3%
DNA fragmentation (sub-G0/G1) (HCT116 cells [6]; 5 μM, 72 h, control 2.0%): 22.4%
cell cycle effect (HCT116 cells [6]; 10 μM, 24 h): cell cycle arrest in S-phase
DNA fragmentation (sub-G0/G1) (HCT116 cells [6]; 10 μM, 48 h, control […]): 9.6%
DNA fragmentation (sub-G0/G1) (HCT116 cells [6]; 10 μM, 72 h, control 2.0%): 34.3%
number of viable cells (HCT116 cells [7]): reduced the number of viable cells
mitochondrial transmembrane potential (HCT116 cells [8]): mitochondrial depolarization
